Broadly, the CC50 is the concentration at which the toxic effect on the cells reaches its halfway point. As usually defined, the Kd is the equilibrium constant for the complex coming apart. Broadly, the IC50 is the concentration that gives 50% inhibition.

The record followed here is ChEMBL document CHEMBL5625165, “Nine-valent oleanolic acid conjugates as potent inhibitors blocking the entry of influenza A virus” (Eur J Med Chem, 2023).

Data set [1] can be described thus: Cytotoxicity against dog MDCK cells assessed as cell viability at 30 uM incubated for 48 hrs by celltiter-glo assay. It counts as toxicity, cell-based, Canis lupus familiaris. To be noted: read-out: Activity. For orientation: Cellular ATP, detected with luciferase, serves as a proxy for viable cell number.
Data set [2] is described as follows: Cytotoxicity against dog MDCK cells assessed as reduction in cell viability incubated for 48 hrs by celltiter-glo assay. It counts as toxicity, cell-based, Canis lupus familiaris.
Data set [3] has as its system Erythrocyte. As to the kind of experiment: Inhibition of hemagglutination in chicken RBC cells infected with Influenza A virus A/WSN/33 (H1N1) assessed as reduction in virus-induced agglutination of erythrocytes at 0.24 to 15 uM incubated for 24 mins. It counts as functional, cell-based. To be noted: Gallus gallus, dose 0.24-15 µM.
Data set [4] deals with Influenza A virus. Briefly: Antiviral activity against influenza A virus A/WSN/33(H1N1) infected in MDCK cells assessed as inhibition of virus-induced cytopathic effect at 30 uM incubated for 48 hrs by microscopic analysis. It counts as functional, organism-based. In general terms: Damage to the host cells serves as the signal in cytopathic effect assays.
Data set [5] has as its system Influenza A virus. As to the kind of experiment: Antiviral activity against influenza A virus A/WSN/33(H1N1) infected in MDCK cells assessed as reduction in M2 expression measured upto 2 hrs by time of addition assay. More on the design: scale not given: the % may be the effect or the level left. It counts as functional.
Data set [6] in a line: Binding affinity to influenza A virus H1N1 (A/michigan/45/2015) assessed as dissociation constant by SPR analysis. In general terms: Surface plasmon resonance follows binding to a sensor surface in real time, without labels.
A short description of data set [7]: Selectivity index, ratio of CC50 for cytotoxicity against dog MDCK cells assessed as reduction in cell viability to IC50 for antiviral activity against influenza A virus A/WSN/33(H1N1) infected in MDCK cells assessed as inhibition of viral-induced cytopathic effect. Particulars: read-out: Ratio CC50/IC50. It counts as toxicity, cell-based.
Data set [8] relates to Influenza A virus. As to the kind of experiment: Antiviral activity against influenza A virus A/WSN/33(H1N1) infected in MDCK cells assessed as inhibition of viral growth at 30 uM incubated for 48 hrs by microscopic analysis. It counts as functional. More on the design: scale not given: the % may be the effect or the level left.
In data set [9] the test system is Influenza A virus. As to the kind of experiment: Antiviral activity against influenza A virus B/Sichuan/531/2018 (Victoria) infected in MDCK cells assessed as inhibition of viral growth. Format: functional, organism-based.
The test system of data set [10] is Influenza A virus. Briefly: Antiviral activity against influenza A virus A/WSN/33(H1N1) infected in MDCK cells assessed as inhibition of viral-induced cytopathic effect incubated for 48 hrs by microscopic analysis. Format: functional, organism-based.
Data set [11] in a line: Selectivity index, ratio of CC50 for cytotoxicity against dog MDCK cells assessed as reduction in cell viability to IC50 for antiviral activity against influenza A virus B/Sichuan/531/2018 (Victoria) infected in MDCK cells assessed as inhibition of viral growth. To be noted: read-out: Ratio CC50/IC50. It counts as toxicity, cell-based.
For data set [12], the system named is Erythrocyte. As to the kind of experiment: Hemolytic activity in rabbit RBC assessed as hemolysis at 300 uM incubated for 2 hr by spectrophotometry analysis. It counts as toxicity, cell-based, Oryctolagus cuniculus.
Data set [13] relates to Influenza A virus. Briefly: Antiviral activity against influenza A virus B/Darwin/58/2019 (Yamagata) infected in MDCK cells assessed as inhibition of viral growth. It counts as functional, organism-based.
Data set [14] is described as follows: Selectivity index, ratio of CC50 for cytotoxicity against dog MDCK cells assessed as reduction in cell viability to IC50 for antiviral activity against influenza A virus B/Darwin/58/2019 (Yamagata) infected in MDCK cells assessed as inhibition of viral growth. Format: toxicity, cell-based. To be noted: read-out: Ratio CC50/IC50.

Active and inactive are the calls of the source. The rule behind the calls is not given here. Some results are limits rather than exact numbers.

For the compound `CC1(C)CC[C@]2(C(=O)NCCOCCOCCOCCn3cc(COc4cc(C(=O)NCCOCCOCCOCCn5cc(COc6cc(OCc7cn(CCOCCOCCOCCNC(=O)c8cc(OCc9cn(CCOCCOCCOCCNC(=O)[C@]%10%11CCC(C)(C)C[C@H]%10C%10=CC[C@@H]%12[C@@]%13(C)CC[C@H](O)C(C)(C)[C@@H]%13CC[C@@]%12(C)[C@]%10(C)CC%11)nn9)c(OCc9cn(CCOCCOCCOCCNC(=O)[C@]%10%11CCC(C)(C)C[C@H]%10C%10=CC[C@@H]%12[C@@]%13(C)CC[C@H](O)C(C)(C)[C@@H]%13CC[C@@]%12(C)[C@]%10(C)CC%11)nn9)c(OCc9cn(CCOCCOCCOCCNC(=O)[C@]%10%11CCC(C)(C)C[C@H]%10C%10=CC[C@@H]%12[C@@]%13(C)CC[C@H](O)C(C)(C)[C@@H]%13CC[C@@]%12(C)[C@]%10(C)CC%11)nn9)c8)nn7)cc(OCc7cn(CCOCCOCCOCCNC(=O)c8cc(OCc9cn(CCOCCOCCOCCNC(=O)[C@]%10%11CCC(C)(C)C[C@H]%10C%10=CC[C@@H]%12[C@@]%13(C)CC[C@H](O)C(C)(C)[C@@H]%13CC[C@@]%12(C)[C@]%10(C)CC%11)nn9)c(OCc9cn(CCOCCOCCOCCNC(=O)[C@]%10%11CCC(C)(C)C[C@H]%10C%10=CC[C@@H]%12[C@@]%13(C)CC[C@H](O)C(C)(C)[C@@H]%13CC[C@@]%12(C)[C@]%10(C)CC%11)nn9)c(OCc9cn(CCOCCOCCOCCNC(=O)[C@]%10%11CCC(C)(C)C[C@H]%10C%10=CC[C@@H]%12[C@@]%13(C)CC[C@H](O)C(C)(C)[C@@H]%13CC[C@@]%12(C)[C@]%10(C)CC%11)nn9)c8)nn7)c6)nn5)cc(OCc5cn(CCOCCOCCOCCNC(=O)[C@]67CCC(C)(C)C[C@H]6C6=CC[C@@H]8[C@@]9(C)CC[C@H](O)C(C)(C)[C@@H]9CC[C@@]8(C)[C@]6(C)CC7)nn5)c4OCc4cn(CCOCCOCCOCCNC(=O)[C@]56CCC(C)(C)C[C@H]5C5=CC[C@@H]7[C@@]8(C)CC[C@H](O)C(C)(C)[C@@H]8CC[C@@]7(C)[C@]5(C)CC6)nn4)nn3)CC[C@]3(C)C(=CC[C@@H]4[C@@]5(C)CC[C@H](O)C(C)(C)[C@@H]5CC[C@]43C)[C@@H]2C1`, the viability at 48 h, 30 µM in [1] was found to be 100%. Further, in data set [2], the CC50 at 48 h is more than 30 µM. In addition, in the data set with Erythrocyte [3], the inhibition result is “Active”. For the same compound, the outcome in the data set with Influenza A virus [4] was Active. The Activity with Influenza A virus [5] was more than 90%; in the data set on Influenza A virus [8], 76.88%. Also, the equilibrium dissociation constant (Kd) in [6] is 12.9 µM. Besides, the results for the selectivity ratio in data set [7] and in [11] were more than 5.74 and more than 0.9, respectively. Further, the IC50 turned out to be 33.5 µM with Influenza A virus [9] and 5.23 µM in the data set with Influenza A virus [10].
Turning to `CC1(C)CC[C@]2(C(=O)NCCOCCn3cc(COc4cc(C(=O)NCCNC(=O)OCCn5cc(COc6cc(OCc7cn(CCOC(=O)NCCNC(=O)c8cc(OCc9cn(CCOCCNC(=O)[C@]%10%11CCC(C)(C)C[C@H]%10C%10=CC[C@@H]%12[C@@]%13(C)CC[C@H](O)C(C)(C)[C@@H]%13CC[C@@]%12(C)[C@]%10(C)CC%11)nn9)c(OCc9cn(CCOCCNC(=O)[C@]%10%11CCC(C)(C)C[C@H]%10C%10=CC[C@@H]%12[C@@]%13(C)CC[C@H](O)C(C)(C)[C@@H]%13CC[C@@]%12(C)[C@]%10(C)CC%11)nn9)c(OCc9cn(CCOCCNC(=O)[C@]%10%11CCC(C)(C)C[C@H]%10C%10=CC[C@@H]%12[C@@]%13(C)CC[C@H](O)C(C)(C)[C@@H]%13CC[C@@]%12(C)[C@]%10(C)CC%11)nn9)c8)nn7)cc(OCc7cn(CCOC(=O)NCCNC(=O)c8cc(OCc9cn(CCOCCNC(=O)[C@]%10%11CCC(C)(C)C[C@H]%10C%10=CC[C@@H]%12[C@@]%13(C)CC[C@H](O)C(C)(C)[C@@H]%13CC[C@@]%12(C)[C@]%10(C)CC%11)nn9)c(OCc9cn(CCOCCNC(=O)[C@]%10%11CCC(C)(C)C[C@H]%10C%10=CC[C@@H]%12[C@@]%13(C)CC[C@H](O)C(C)(C)[C@@H]%13CC[C@@]%12(C)[C@]%10(C)CC%11)nn9)c(OCc9cn(CCOCCNC(=O)[C@]%10%11CCC(C)(C)C[C@H]%10C%10=CC[C@@H]%12[C@@]%13(C)CC[C@H](O)C(C)(C)[C@@H]%13CC[C@@]%12(C)[C@]%10(C)CC%11)nn9)c8)nn7)c6)nn5)cc(OCc5cn(CCOCCNC(=O)[C@]67CCC(C)(C)C[C@H]6C6=CC[C@@H]8[C@@]9(C)CC[C@H](O)C(C)(C)[C@@H]9CC[C@@]8(C)[C@]6(C)CC7)nn5)c4OCc4cn(CCOCCNC(=O)[C@]56CCC(C)(C)C[C@H]5C5=CC[C@@H]7[C@@]8(C)CC[C@H](O)C(C)(C)[C@@H]8CC[C@@]7(C)[C@]5(C)CC6)nn4)nn3)CC[C@]3(C)C(=CC[C@@H]4[C@@]5(C)CC[C@H](O)C(C)(C)[C@@H]5CC[C@]43C)[C@@H]2C1`, the Activity entry was “Non-Toxic” with Erythrocyte [12], more than 90% in the data set on Influenza A virus [5] and 100% with Influenza A virus [8]. The viability at 48 h, 30 µM in data set [1] stood at 96.5%. In addition, the 50% cytotoxic concentration (CC50) at 48 h in [2] was more than 30 µM. Moreover, the IC50 is 9.38 µM in the data set on Influenza A virus [13], 27.2 µM with Influenza A virus [9] and 7.93 µM in the data set on Influenza A virus [10]. The selectivity ratio in data set [14] was more than 3.2; in [7], more than 3.78; in data set [11], more than 1.1. Besides, the inhibition result in the data set with Erythrocyte [3] was “Active”.
